# Values of other authors as cited in patent US20260048172A1, “WOUND DRESSINGS” (ConvaTec Limited, priority 2023, published 2026).
substance,measurement,setting,value
citric acid [citric/citrate],pka (third),Ka = 0.0000004,pka = 6.4
same,pka (second),Ka = 0.0000200,pka = 4.7
same,pka (first),Ka = 0.0007943,pka = 3.1
